# According to PubChem BioAssay AID1963967 (Molecular Pharmacology Branch, DTP, NCI, 2024):
# Test system: 855422-203-R-J1-PDC spheroids with HUVEC/MSC, viability
# Assay: Anticancer human tumor 855422-203-R-J1-PDC patient-derived bladder carcinoma cell line growth inhibition [PI3K]
# Settings: for IC50: curve of first compound; for viability, T/C: stronger effect = lower value
# In short: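 Viability of mixed-cell spheroids was determined after exposure to pairwise combinations, one partner being inavolisib, alpelisib, duvelisib or copanlisib. Highest tested concentration matched clinical Cmax where known and 10 microM where not, descending in half-log steps.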
# [1] = second compound 0.0316 µM, first compound 0.000316 µM
# [2] = second compound 0.0316 µM, first compound 0.001 µM
# [3] = second compound 0.0316 µM, first compound 0.00316 µM
# [4] = second compound 0.0316 µM, first compound 0.01 µM
# [5] = second compound 0.0316 µM, first compound 0.0316 µM
# [6] = second compound 0.0316 µM, first compound 0.1 µM
# [7] = second compound 0.1 µM, first compound 0.000316 µM
# [8] = second compound 0.1 µM, first compound 0.001 µM
# [9] = second compound 0.1 µM, first compound 0.00316 µM
# [10] = second compound 0.1 µM, first compound 0.01 µM
# [11] = second compound 0.1 µM, first compound 0.0316 µM
# [12] = second compound 0.1 µM, first compound 0.1 µM
# [13] = second compound 0.316 µM, first compound 0.000316 µM
# [14] = second compound 0.316 µM, first compound 0.001 µM
# [15] = second compound 0.316 µM, first compound 0.00316 µM
# [16] = second compound 0.316 µM, first compound 0.01 µM
# [17] = second compound 0.316 µM, first compound 0.0316 µM
# [18] = second compound 0.316 µM, first compound 0.1 µM
# [19] = second compound 1 µM, first compound 0.000316 µM
# [20] = second compound 1 µM, first compound 0.001 µM
# [21] = second compound 1 µM, first compound 0.00316 µM
# [22] = second compound 1 µM, first compound 0.01 µM
# [23] = second compound 1 µM, first compound 0.0316 µM
# [24] = second compound 1 µM, first compound 0.1 µM
# 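Further: agents incubated with spheroids for one week before read-out.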
# 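Wherever viability, T/C is given: 100% = DMSO vehicle-treated control wells.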
structure (smiles),measurement,setting,value
CC(C)n1nc(-c2ccc3oc(N)nc3c2)c2c(N)ncnc21 + CC(Nc1ccc2c(c1)OCCn1cc(N3C(=O)OCC3C(F)F)nc1-2)C(N)=O,IC50,second compound 0.00316 µM,51.8 nM
same,IC50,second compound 0.01 µM,43.9 nM
same,IC50,second compound 0.0316 µM,38 nM
same,IC50,second compound 0.1 µM,26.8 nM
same,IC50,second compound 0.316 µM,6.08 nM
same,IC50,second compound 1 µM,< 0.316 nM
same,"viability, T/C","second compound 0.00316 µM, first compound 0.000316 µM",113%
same,"viability, T/C","second compound 0.00316 µM, first compound 0.001 µM",90.1%
same,"viability, T/C","second compound 0.00316 µM, first compound 0.00316 µM",108%
same,"viability, T/C","second compound 0.00316 µM, first compound 0.01 µM",92.3%
same,"viability, T/C","second compound 0.00316 µM, first compound 0.0316 µM",74.2%
same,"viability, T/C","second compound 0.00316 µM, first compound 0.1 µM",18.3%
same,"viability, T/C","second compound 0.01 µM, first compound 0.000316 µM",87.7%
same,"viability, T/C","second compound 0.01 µM, first compound 0.001 µM",92.9%
same,"viability, T/C","second compound 0.01 µM, first compound 0.00316 µM",98.7%
same,"viability, T/C","second compound 0.01 µM, first compound 0.01 µM",81.4%
same,"viability, T/C","second compound 0.01 µM, first compound 0.0316 µM",63.1%
same,"viability, T/C","second compound 0.01 µM, first compound 0.1 µM",19%
same,"viability, T/C",[1],91%
same,"viability, T/C",[2],84.4%
same,"viability, T/C",[3],82%
same,"viability, T/C",[4],72%
same,"viability, T/C",[5],59.6%
same,"viability, T/C",[6],14.4%
same,"viability, T/C",[7],71.8%
same,"viability, T/C",[8],72.7%
same,"viability, T/C",[9],78.7%
same,"viability, T/C",[10],69.9%
same,"viability, T/C",[11],46.6%
same,"viability, T/C",[12],11.4%
same,"viability, T/C",[13],59.3%
same,"viability, T/C",[14],55.9%
same,"viability, T/C",[15],58.7%
same,"viability, T/C",[16],43.3%
same,"viability, T/C",[17],32.7%
same,"viability, T/C",[18],7.57%
same,"viability, T/C",[19],39.8%
same,"viability, T/C",[20],38.4%
same,"viability, T/C",[21],36%
same,"viability, T/C",[22],34%
same,"viability, T/C",[23],24.1%
same,"viability, T/C",[24],6.71%
Cn1ncnc1[C@H]1c2n[nH]c(=O)c3cc(F)cc(c23)N[C@@H]1c1ccc(F)cc1 + Cc1nc(NC(=O)N2CCCC2C(N)=O)sc1-c1ccnc(C(C)(C)C(F)(F)F)c1,IC50,second compound 0.0316 µM,> 100 nM
same,IC50,second compound 0.1 µM,> 100 nM
same,IC50,second compound 0.316 µM,> 100 nM
same,IC50,second compound 1 µM,> 100 nM
same,IC50,second compound 3.16 µM,0.903 nM
same,IC50,second compound 10 µM,< 0.316 nM
same,"viability, T/C",[1],112%
same,"viability, T/C",[2],92.8%
same,"viability, T/C",[3],112%
same,"viability, T/C",[4],96.8%
same,"viability, T/C",[5],105%
same,"viability, T/C",[6],109%
same,"viability, T/C",[7],105%
same,"viability, T/C",[8],102%
same,"viability, T/C",[9],102%
same,"viability, T/C",[10],101%
same,"viability, T/C",[11],101%
same,"viability, T/C",[12],105%
same,"viability, T/C",[13],92.9%
same,"viability, T/C",[14],93.8%
same,"viability, T/C",[15],95.8%
same,"viability, T/C",[16],94.7%
same,"viability, T/C",[17],98.6%
same,"viability, T/C",[18],97.2%
same,"viability, T/C",[19],72.7%
same,"viability, T/C",[20],74%
same,"viability, T/C",[21],79.2%
same,"viability, T/C",[22],75.5%
same,"viability, T/C",[23],79.4%
same,"viability, T/C",[24],68.3%
same,"viability, T/C","second compound 3.16 µM, first compound 0.000316 µM",51.6%
same,"viability, T/C","second compound 3.16 µM, first compound 0.001 µM",49.8%
same,"viability, T/C","second compound 3.16 µM, first compound 0.00316 µM",47.1%
same,"viability, T/C","second compound 3.16 µM, first compound 0.01 µM",47.7%
same,"viability, T/C","second compound 3.16 µM, first compound 0.0316 µM",49.1%
same,"viability, T/C","second compound 3.16 µM, first compound 0.1 µM",44.6%
same,"viability, T/C","second compound 10 µM, first compound 0.000316 µM",25.6%
same,"viability, T/C","second compound 10 µM, first compound 0.001 µM",25.1%
same,"viability, T/C","second compound 10 µM, first compound 0.00316 µM",22.2%
same,"viability, T/C","second compound 10 µM, first compound 0.01 µM",27.8%
same,"viability, T/C","second compound 10 µM, first compound 0.0316 µM",25.1%
same,"viability, T/C","second compound 10 µM, first compound 0.1 µM",21.3%
